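These data come from cells grown in 96-well plates and exposed to compound for 48 hours at five concentrations. Here, GI50 denotes the concentration required for 50% inhibition of growth. TGI: total growth inhibition.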
Experiments:
Assay in all cases: DTP human tumour cell line panel, 48 h
786-0 renal = test system: 786-0 renal
ACHN renal = test system: ACHN renal
HCC-2998 colon = test system: HCC-2998 colon
HCT-15 colon = test system: HCT-15 colon
K-562 leukemia = test system: K-562 leukemia
MALME-3M melanoma = test system: MALME-3M melanoma
MDA-MB-231 breast = test system: MDA-MB-231 breast
OVCAR-4 ovarian = test system: OVCAR-4 ovarian
SR leukemia = test system: SR leukemia
SW-620 colon = test system: SW-620 colon

Row | Structure (SMILES) | GI50 (786-0 renal) [µM] | TGI (786-0 renal) [µM] | GI50 (ACHN renal) [µM] | TGI (ACHN renal) [µM] | GI50 (HCC-2998 colon) [µM] | TGI (HCC-2998 colon) [µM] | GI50 (HCT-15 colon) [µM] | TGI (HCT-15 colon) [µM] | GI50 (K-562 leukemia) [µM] | TGI (K-562 leukemia) [µM] | GI50 (MALME-3M melanoma) [µM] | TGI (MALME-3M melanoma) [µM] | GI50 (MDA-MB-231 breast) [µM] | TGI (MDA-MB-231 breast) [µM] | GI50 (OVCAR-4 ovarian) [µM] | TGI (OVCAR-4 ovarian) [µM] | GI50 (SR leukemia) [µM] | TGI (SR leukemia) [µM] | GI50 (SW-620 colon) [µM] | TGI (SW-620 colon) [µM]
1 | CC1=C([Se]CC(OC(=O)CC[Se]c2ccccc2)C(=O)NCCCCCC(=O)OCc2ccccc2)C(=O)c2ccccc2C1=O (configuration not stated) | 3.18 | 8.36 | 3.18 | 13.8 | 2.9 | 7.46 | 3.85 | 21.6 | 3.31 | 23.7 | 2.31 | 5.92 | 1.95 | 4.94 | 2.28 | 6.56 | 3.38 | 17.2 | 3.28 | 11.6
2 | COc1ccc(/C=C/C(=O)c2cc3c(N)c(C(=O)Nc4ccccc4Cl)sc3nc2C)cc1 | 0.839 | 2.18 | 1.74 | 10.8 | 8 | > 50 | 2.96 | > 50 | 2.49 | > 50 | 0.736 | 9.21 | 2.22 | 20.3 | 1.7 | 46 | 3.77 | > 50 | 3.39 | > 50
3 | Cc1c(C#N)cccc1-c1cc(-c2cn(Cc3cccc(C(C)(C)O)n3)nn2)nc(N)n1 | 32 | > 100 | 28.3 | > 100 | 90.3 | > 100 | 23.2 | > 100 | 13.4 | > 100 | 31.3 | > 100 | 15.7 | > 100 | 9.69 | > 100 | 13.3 | > 100 | 51.3 | > 100
4 | C=C1C(=O)O[C@H]2[C@H]1CC/C(COC(=O)NCc1cc3ccccc3[nH]1)=C\CC[C@@]1(C)O[C@@H]21 | 1.76 | 3.52 | 1.38 | 2.75 | 2.02 | 3.67 | 1.54 | 3.32 | 1.63 | 9.18 | 1.81 | 3.58 | 1.65 | 3.57 | 2.2 | 7.63 | 2.32 | 8.75 | 1.72 | 3.84
5 | C(=N\Nc1ccccn1)/c1ccccn1 | 0.301 |  | 0.294 |  | 0.272 | 97.3 | 0.368 | > 100 | 0.412 | > 100 | 0.293 | 2.69 | 0.501 | > 100 | 0.26 |  | 0.367 | > 100 | 0.557 | > 100
